From patent publication US20090042188A1, “Agent for Differentiating Hematopoietic Stem Cell Into Natural Killer Cell Comprising Vdup1 Protein or Gene Encoding the Same, and a Method of Differentiating Hematopoietic Stem Cell Into Natural Killer Cell Using Thereof” (Korea Research Institute of Bioscience and Biotechnology, priority 2005, published 2009)

What was measured:
[1] = system: Yac-1; assay: 51Cr release assay of NK cells differentiated in vitro under vitamin D3; type: cell-based, mouse; details: 10 nM vitamin D3 during differentiation, compared with vitamin D3 non-treating group (FIG. 16)
Protocol: FIG. 16 is a graph showing the cytotoxicity, investigated by ^51Cr release assay, of NK cells for a target cell ‘Yac-1’ developed under the treatment of low concentration of vitamin D3 (10 nM). E/T means the ratio of effective cells to target cells.
(§1) NK cells, differentiated in vitro or isolated from spleen, were treated with IL-2 (10 u/ml), followed by culture for 24 hours. After being washed, NK cells were plated, according to ratios of effector cells to target cells, into a 96 well plate (well round bottom plate, Falcon, USA) containing target cells (^51Cr-labeled Yac-1 cells, 10^4/well), followed by further culture for 4 hours. Upon completion of the culture, radioactivity of 100 ul of supernatant was measured by γ counter (FIG. 9).
To investigate the effect of vitamin D3, known to regulate VDUP1, on NK cell development, 1,25-dihydroxy vitamin D(3) was treated to each stage of differentiation from mouse HSCs into mNK cells via pNK. The cells were matured by the culture in the presence of OP9 and IL-15, then FACS analysis (FIG. 15) and ^51Cr release assay (FIG. 16) were performed.

[2] = system: mouse HSCs; assay: NK cell differentiation from HSCs under vitamin D3 treatment, FACS analysis of NK1.1-positive cells; type: cell-based; details: vitamin D3 treated at each stage HSC to pNK to mNK; culture with OP9 and IL-15; FACS (FIG. 15)
Protocol: FIG. 15 is a set of graphs showing the result of FACS analysis with NK cell group positive for NK1.1. Vitamin D3 was treated during the whole procedure of differentiation from HSCs of a wild type mouse into mNK via pNK, which was progressed by the cell culture in the presence of OP9 and IL-15, resulting in the confirmation of NK cell group positive for NK1.1.
HSCs isolated from bone marrow in the above Example 1 were inoculated into 6-well plate (Falcon, USA) using a complete RPMI medium supplemented with mouse SCF (30 ng/ ? , BioSource, Camarillo, Calif.), mouse Flt3L (50 ng/ ? , PeproTech, Rocky Hill, N.J.), mouse IL-7 (0.5 ng/ ? , PeproTech), indomethacin (2 g/ ? , Sigma), gentamycin (20 g/ ? ) and 10% fetal bovine serum, at the concentration of 2×10^6 cells/well. The cells were cultured in a 37° C., 5% CO2 incubator for 6 days. […] The purity of the pNK cells was determined by FACS, confirming over 92% purity.
To generate mature NK cells (referred as “mNK cells” hereinafter), collected HSCs were cultured with or without OP9 stromal cells (Science, 265: 1098-1101, 1994) in the presence of mouse IL-15 (20 ng/ ? , PeproTech, USA). […] The purity of the mature NK cells was determined by flow cytometry (FACS) using anti-CD122, NK1.1, DX-5 and NK cell receptor antibodies. […]

[3] = system: mature NK cells; assay: 51Cr release assay of mature spleen NK cells treated with IL-2 and vitamin D3; type: cell-based; details: mature NK cells from wild type mouse spleen, vitamin D3 together with IL-2 for 24 hours (FIG. 17)
Protocol: FIG. 17 is a graph showing the cytotoxicity of mature NK cells, separated from spleen of a wild type mouse, and then treated with IL-2 and/or vitamin D3 for 24 hours, detected by ^51Cr release assay.
as §1
Further, mature NK cells were isolated from spleen of a wild type mouse. The cells were treated with vitamin D3 together with IL-2 for 24 hours, followed by ^51Cr release assay (FIG. 17).

`C=C1/C(=C\C=C2/CCC[C@]3(C)[C@@H]([C@H](C)CCCC(C)(C)O)CC[C@@H]23)C[C@@H](O)C[C@@H]1O` [vitamin D3, 1,25-dihydroxy vitamin D(3)] was tested, and the “NK mediated cytotoxicity for Yac-1” value [1] was “increased”, the “NK cell population (NK1.1 positive)” value [2] was “increased by vitamin D3 in a dose dependent manner” and the NK mediated cytotoxicity [3] was “increased”.
